According to ChEMBL document CHEMBL1201862, “PubChem BioAssay data set” (2004):
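Five concentrations, 48 hours, 96-well plates. At the GI50, growth is halved.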 The source made the active and inactive calls. Rule as the data show it: active = GI50 up to about 1.1 µM and inactive = higher.

What was measured:
Test in all cases: DTP human tumour cell line panel, 48 h
[1] = test system: HCT-15
[2] = test system: HOP-62
[3] = test system: SF-539
[4] = test system: BT-549
[5] = test system: ACHN
[6] = test system: Hs-578T
[7] = test system: CAKI-1
[8] = test system: CCRF-CEM
[9] = test system: IGROV-1
[10] = test system: COLO 205
[11] = test system: NCI-H226
[12] = test system: SN12C
[13] = test system: OVCAR-3
[14] = test system: SK-MEL-2
[15] = test system: RPMI-8226
[16] = test system: MDA-MB-231
[17] = test system: SR
[18] = test system: A498
[19] = test system: EKVX
[20] = test system: SK-MEL-5
[21] = test system: T47D
[22] = test system: NCI-H23
[23] = test system: NCI-H522
[24] = test system: OVCAR-8
[25] = test system: K562
[26] = test system: OVCAR-5
[27] = test system: SF-295
[28] = test system: MDA-MB-435
[29] = test system: HL-60
[30] = test system: UACC-62
[31] = test system: HCT-116
[32] = test system: DU-145
[33] = test system: TK-10
[34] = test system: M14
[35] = test system: PC-3
[36] = test system: U-251
[37] = test system: UACC-257
[38] = test system: 786-0
[39] = test system: LOX IMVI
[40] = test system: SNB-19
[41] = test system: NCI/ADR-RES
[42] = test system: SK-OV-3
[43] = test system: OVCAR-4
[44] = test system: Malme-3M
[45] = test system: UO-31
[46] = test system: HT-29
[47] = test system: A549
[48] = test system: SK-MEL-28
[49] = test system: SW-620
[50] = test system: MCF7
[51] = test system: KM12
[52] = test system: SF-268
[53] = test system: MOLT-4
[54] = test system: NCI-H460
[55] = test system: HCC 2998
[56] = test system: SNB-75
[57] = test system: HOP-92
[58] = test system: RXF 393

Measured: GI50

N#CCCOc1cccc(C2(N3CCCCC3)CCCCC2)c1
inactive: [2] > 100 µM | [3] > 100 µM | [4] > 100 µM | [5] > 100 µM | [6] > 100 µM | [7] > 100 µM | [8] > 100 µM | [9] > 100 µM | [10] > 100 µM | [11] > 100 µM | [12] > 100 µM | [13] > 100 µM | [14] > 100 µM | [15] > 100 µM | [16] > 100 µM | [17] > 100 µM | [18] > 100 µM | [19] > 100 µM | [20] > 100 µM | [21] > 100 µM | [22] > 100 µM | [23] > 100 µM | [24] > 100 µM | [25] > 100 µM | [26] > 100 µM | [27] > 100 µM | [28] > 100 µM | [29] > 100 µM | [30] > 100 µM | [31] > 100 µM | [32] > 100 µM | [33] > 100 µM | [34] > 100 µM | [35] > 100 µM | [36] > 100 µM | [37] > 100 µM | [38] > 100 µM | [39] > 100 µM | [40] > 100 µM | [41] > 100 µM | [42] > 100 µM | [43] > 100 µM | [44] > 100 µM | [45] > 100 µM | [46] > 100 µM | [47] > 100 µM | [48] > 100 µM | [49] > 100 µM | [50] > 100 µM | [51] > 100 µM | [52] > 100 µM | [53] > 100 µM
> 100 µM: [1]

CC(ON1[C@](C)(c2ccccc2)CC[C@@]1(C)c1ccccc1)c1ccccc1 (stereo partly specified)
> 100 µM: [1]
inactive: [2] 83.4 µM | [3] > 100 µM | [4] 13.4 µM | [6] 37.3 µM | [7] 37.8 µM | [8] 22.7 µM | [9] 52 µM | [10] 43.4 µM | [11] 40.9 µM | [12] 45.6 µM | [13] 38.4 µM | [14] 20 µM | [15] 22.4 µM | [16] 43.3 µM | [54] 36.2 µM | [19] 23.8 µM | [20] 30 µM | [55] 20.9 µM | [21] 24.1 µM | [22] 40 µM | [23] 15.3 µM | [24] 48.2 µM | [25] 33 µM | [26] 41.1 µM | [27] 26.3 µM | [56] 25.9 µM | [28] 44.4 µM | [29] 23.6 µM | [31] 25.4 µM | [32] 34.8 µM | [33] > 100 µM | [34] 24.2 µM | [35] 39.2 µM | [36] 31 µM | [37] 28.3 µM | [38] 52.4 µM | [39] 31.2 µM | [40] 25.5 µM | [41] 48.2 µM | [42] > 100 µM | [57] 21.4 µM | [43] 68.4 µM | [44] 32.5 µM | [45] 37.9 µM | [46] 31.2 µM | [47] 30.9 µM | [48] 53.2 µM | [49] 37.9 µM | [51] 29.4 µM | [52] 58.5 µM | [58] 20.4 µM | [53] 16.2 µM
